{
  "source": "paper PMC12993615",
  "about": "(The journal of pain, 2024)",
  "key": {"[1]": {"system": "oxaliplatin-induced mechanical allodynia", "assay": "7-day treatment of established OIPN, paw withdrawal threshold", "assay_type": "in vivo, male Sprague Dawley rats", "conditions": "25 mg/kg BID PO 7 days, across Days 7 and 14, P < .05", "description": "Male Sprague Dawley rats (150–210 g) were housed in groups of 4 in intra-ventilated Perspex home cages. Humidity, temperature (21 ± 1 °C), and lighting (light-dark cycle of 12:12 hours) were controlled and maintained in the home cages, with food and water available ad libitum. Rats acclimatised to the home cages for at least 1 week. All experiments were carried out according to the Animals (Scientific Procedures) Act, 1986 (U.K. Government Home Office). The study was performed under the Home Office project licence number PP0847012. OIPN was established with a single dose of OXA (10 mg/kg, IP).\nBody weight was monitored throughout the study, and terminal plasma and whole brain samples were taken for bioanalysis.\nTactile allodynia (primary outcome measure) was assessed using paw withdrawal threshold (PWT), a measure of pain sensitivity. PWT was evaluated using calibrated von-Frey monofilaments (Touch-Test Sensory Evaluator; Scientific Marketing Associates) applied to the plantar surface of the left hind paw. PWT was determined by increasing and decreasing stimulus intensity and estimated using Dixon’s up-down method.[38],[39]\nTo acquire baseline readings, pain behaviour was assessed on 3 consecutive days (Days −3, −2, −1). […] NPB expressed as a percentage change from HBL was calculated as follows (HBL-NPB)/HBL*100. […]"}, "in vivo": {"assay": "in vivo", "conditions": "both sexes, beagle, dog, po, 500 mg/kg", "from_the_text": "Examined parameters to assess toxicity included clinical observations, mortality and moribundity cheques, body weights, food consumption, electrocardiogram, TK, clinical chemistry, haematology, coagulation, urinalysis, gross pathology, organ weights, and histopathology."}, "[2]": {"system": "PAG, DRG and PFC transcriptomes", "assay": "Transcriptomic analysis (RNA-seq) of terminal tissues, OIPN prevention study", "assay_type": "in vivo, male Sprague Dawley rats", "from_the_text": "Pain measurements were made on Days 5/6 (when neuropathy has normally developed) and at the end of the study. […] Terminal plasma samples were taken for bioanalysis and proteomics (Somalogic). Brain regions involved in pain processing, that is, prefrontal cortex (PFC), periaqueductal grey (PAG), whole spinal cords (SC), and L4-L6 dorsal root ganglia, were collected for lipidomic and genomic (Genewiz, China) analyses. Sequencing (Illumnia NovoSeq) was done at Genewiz (Shanghai, China). Sequence reads were trimmed using Trimmomatic (v.0.36). Reads were then aligned to the R. norvegicus Rnor6.0 reference genome (https://www.ncbi.nlm.nih.gov/assembly/GCF_000001895.5/) using the STAR aligner (v.2.5.2b) and unique gene hit counts were calculated using featureCounts from the Subread package (v.1.5.2). Differentially expressed genes were determined using limma 3.46.0. […] Visualisation was done using the EnhancedVolcano (1.7.10) package in R. Gene set enrichment analysis was carried out using the gprofiler2 package in R."}, "[3]": {"system": "dorsal root ganglion lipids", "assay": "Lipidomic analysis of terminal tissues, OIPN prevention study", "assay_type": "in vivo, male Sprague Dawley rats", "conditions": "25 mg/kg BID, versus vehicle, P = .03", "description": "Pain measurements were made on Days 5/6 (when neuropathy has normally developed) and at the end of the study. […] Terminal plasma samples were taken for bioanalysis and proteomics (Somalogic). Brain regions involved in pain processing, that is, prefrontal cortex (PFC), periaqueductal grey (PAG), whole spinal cords (SC), and L4-L6 dorsal root ganglia, were collected for lipidomic and genomic (Genewiz, China) analyses. Lipid extraction from tissues was performed as previously described.[40] Samples were flash frozen in liquid nitrogen, weighed and transferred to a centrifuge tube with HPLC-grade methanol (Thermo Fisher Scientific, Fair Lawn, NJ). Tubes were spiked with 500 picomoles d8AEA (Cayman Chemical, Ann Arbor, MI). Samples were left on ice for 2 hours, homogenised and centrifuged at 19,000 g for 20 minutes at 20°C. […] Elution samples were then analysed by HPLC MS/MS as previously described.[40] 20 μL samples were run on an Agilent XDB-C18 reversed-phase analytical column and analysed using an Applied Biosystems API 3,000 triple quadrupole mass spectrometer with electrospray ionisation (Foster City, CA). […] Concentrations in mols/gram were adjusted according to extraction efficiency, as determined by d8AEA recovery. For each individual lipid species, samples were unblinded, fold-change compared to the vehicle was calculated and significance calculated by t-test (P < .05 and P < .1) in R."}, "FABP7": {"target": "FABP7 (Homo sapiens, UniProt O15540)", "sequence (O15540 whole entry, species assumed)": "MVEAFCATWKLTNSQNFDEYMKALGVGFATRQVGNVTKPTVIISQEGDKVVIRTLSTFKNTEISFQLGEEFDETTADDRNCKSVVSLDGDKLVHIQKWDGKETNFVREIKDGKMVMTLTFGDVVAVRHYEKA", "assay": "Fluorescence displacement binding assay (ANS probe)", "description": "Purified FABPs were incubated with 11-(dansylamino)undecanoic acid (DAUDA) (FABP3, FABP5) or 8-anilino-1-naphthalenesulfonic acid (ANS) (FABP7) in the presence or absence of FABP inhibitors (.01–200 μM) in the binding assay buffer. FABP4 binding was assessed using a commercially available kit (Cayman Chemical, Ann Arbor). In all cases, arachidonic acid (10 μM) was included to account for maximal probe displacement. Loss of fluorescence intensity was monitored with an F5 Filtermax Multi-Mode Microplate Reader (Molecular Devices, Sunnyvale) using the following excitation and emission wavelengths (DAUDA: ex./em.= 360/535 nm; ANS: ex./em. = 360/465 nm). Following background subtraction, the fluorescence intensity values were normalised and analyzed via a one-site binding model using the GraphPadPrism (version 9.2). Ki values were determined using the following equation: Ki= IC50/(1 + ([Probe]/Kd)."}},
  "data": [
    {"smiles": "COc1ccccc1[C@@H]1[C@H](C(=O)O)[C@@H](c2ccccc2OC)[C@H]1C(=O)OC1Cc2ccccc2C1", "note": "[ART26.12, (+)–3-Indan-2-yloxycarbonyl-2,4-bis(2-methoxyphenyl)cyclobutanecarboxylic acid]", "values": [
      {"measurement": "PWT scores versus vehicle", "setting": "[1]", "result": "significantly higher PWT scores than vehicle"},
      {"measurement": "NOAEL at 14 days", "setting": "in vivo", "result": 1000, "unit": "mg/kg/day"},
      {"measurement": "transcriptomic changes in PFC", "setting": "[2]", "result": "No significant changes"},
      {"measurement": "transcriptomic changes in DRG", "setting": "[2]; P < .05, FC > 1.5", "result": "only glycine decarboxylase being significantly upregulated"},
      {"measurement": "number of significantly different genes in PAG", "setting": "[2]; P < .05, log2FC > .58", "result": 20, "unit": "genes"},
      {"measurement": "increase of N-docosahexaenoyl proline in DRG", "setting": "[3]", "result": 9, "unit": "fold"},
      {"measurement": "Ki", "setting": "FABP7", "result": "19 ± 1.81", "unit": "µM"}
    ]}
  ]
}
